Reference: PubChem BioAssay (NCI)
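Abbreviation: GI50, concentration required for 50% inhibition of growth. TGI denotes the concentration required for complete inhibition of growth.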

Assays:
Assay in all cases: growth of human tumour cells (NCI), 384-well format
UO-31 renal = test system: UO-31 renal
HCC-2998 colon = test system: HCC-2998 colon
HS 578T breast = test system: HS 578T breast
CCRF-CEM leukemia = test system: CCRF-CEM leukemia
HT29 colon = test system: HT29 colon
T-47D breast = test system: T-47D breast
SN12C renal = test system: SN12C renal
OVCAR-4 ovarian = test system: OVCAR-4 ovarian
SW-620 colon = test system: SW-620 colon
SF-268 CNS = test system: SF-268 CNS
ACHN renal = test system: ACHN renal
SR leukemia = test system: SR leukemia
MDA-MB-468 breast = test system: MDA-MB-468 breast
LOX IMVI melanoma = test system: LOX IMVI melanoma
NCI-H23 lung = test system: NCI-H23 lung
NCI/ADR-RES ovarian = test system: NCI/ADR-RES ovarian
HOP-62 NSCLC = test system: HOP-62 NSCLC
MDA-MB-435 melanoma = test system: MDA-MB-435 melanoma
HCT-15 colon = test system: HCT-15 colon
COLO 205 colon = test system: COLO 205 colon
SK-MEL-28 melanoma = test system: SK-MEL-28 melanoma
BT-549 breast = test system: BT-549 breast
KM12 colon = test system: KM12 colon
NCI-H460 NSCLC = test system: NCI-H460 NSCLC
DU-145 prostate = test system: DU-145 prostate
MCF7 breast = test system: MCF7 breast
HL-60(TB) leukemia = test system: HL-60(TB) leukemia
UACC-62 melanoma = test system: UACC-62 melanoma
SF-295 CNS = test system: SF-295 CNS

Structure (SMILES): CNc1ncc2cc(-c3cc(NC(=O)NCCC(C)(C)C)c(F)cc3C)c(C)nc2n1
- GI50 (UO-31 renal): 0.21 µM
- TGI (UO-31 renal): 23.6 µM
- GI50 (HCC-2998 colon): 0.127 µM
- TGI (HCC-2998 colon): 11.5 µM
- GI50 (HS 578T breast): 0.354 µM
- TGI (HS 578T breast): 7.89 µM
- GI50 (CCRF-CEM leukemia): 0.495 µM
- TGI (CCRF-CEM leukemia): 18.3 µM
- GI50 (HT29 colon): 0.0268 µM
- TGI (HT29 colon): 13.1 µM
- GI50 (T-47D breast): 2.4 µM
- TGI (T-47D breast): 37.7 µM
- GI50 (SN12C renal): 0.173 µM
- TGI (SN12C renal): 0.889 µM
- GI50 (OVCAR-4 ovarian): 18.3 µM
- TGI (OVCAR-4 ovarian): > 100 µM
- GI50 (SW-620 colon): 0.334 µM
- TGI (SW-620 colon): 15.4 µM
- GI50 (SF-268 CNS): 1.09 µM
- TGI (SF-268 CNS): 16.1 µM
- GI50 (ACHN renal): 0.25 µM
- TGI (ACHN renal): 19.1 µM
- GI50 (SR leukemia): 0.181 µM
- TGI (SR leukemia): 0.385 µM
- GI50 (MDA-MB-468 breast): 12.8 µM
- TGI (MDA-MB-468 breast): 35.2 µM
- GI50 (LOX IMVI melanoma): 0.0277 µM
- TGI (LOX IMVI melanoma): 0.237 µM
- GI50 (NCI-H23 lung): 0.0472 µM
- TGI (NCI-H23 lung): 0.443 µM
- GI50 (NCI/ADR-RES ovarian): 3.08 µM
- TGI (NCI/ADR-RES ovarian): 83.7 µM
- GI50 (HOP-62 NSCLC): 0.367 µM
- TGI (HOP-62 NSCLC): 15.9 µM
- GI50 (MDA-MB-435 melanoma): 0.0336 µM
- TGI (MDA-MB-435 melanoma): 27.3 µM
- GI50 (HCT-15 colon): 0.525 µM
- TGI (HCT-15 colon): 38.6 µM
- GI50 (COLO 205 colon): 0.0144 µM
- TGI (COLO 205 colon): 0.543 µM
- GI50 (SK-MEL-28 melanoma): < 0.01 µM
- TGI (SK-MEL-28 melanoma): 0.0359 µM
- GI50 (BT-549 breast): 1.26 µM
- TGI (BT-549 breast): 19.9 µM
- GI50 (KM12 colon): 0.501 µM
- TGI (KM12 colon): 38.3 µM
- GI50 (NCI-H460 NSCLC): 0.302 µM
- TGI (NCI-H460 NSCLC): 13.8 µM
- GI50 (DU-145 prostate): 0.652 µM
- TGI (DU-145 prostate): 32.4 µM
- GI50 (MCF7 breast): 7.04 µM
- TGI (MCF7 breast): > 100 µM
- GI50 (HL-60(TB) leukemia): 0.0171 µM
- TGI (HL-60(TB) leukemia): 0.13 µM
- GI50 (UACC-62 melanoma): < 0.01 µM
- TGI (UACC-62 melanoma): 0.0517 µM
- GI50 (SF-295 CNS): 1.2 µM
- TGI (SF-295 CNS): > 100 µM
